Laboratory results taken from paper PMC8619046, “ABCB1 and ABCG2 Control Brain Accumulation and Intestinal Disposition of the Novel ROS1/TRK/ALK Inhibitor Repotrectinib, While OATP1A/1B, ABCG2, and CYP3A Limit Its Oral Availability” (Pharmaceutics, 2021).
“And” between values parts separate entries of the source, which are not always exact repeats. Identical values can stand only once. Like-named read-outs stand apart in the source and are kept apart here.

Assays:
[1] = 8-h oral plasma pharmacokinetics and tissue distribution, female wild-type, Cyp3a−/− and Cyp3aXAV mice; type: in vivo; details: 10 mg/kg oral; for Tmax: median (range); for Tmax / SIC (% of dose) / Fold change AUC0–8h / Fold change SIC (% of dose) / Fold increase Cbrain / Fold increase Cliver / Fold increase ratio (brain-to-plasma) / Fold increase ratio (liver-to-plasma) / Kp at 8 h / concentration at 8 h / half-life / Cmax / AUC(0-t): 8 h; for Fold change AUC0–8h / Fold change SIC (% of dose) / Fold increase Cbrain / Fold increase Cliver / Fold increase ratio (brain-to-plasma) / Fold increase ratio (liver-to-plasma): vs wild-type; for Kp at 8 h / concentration at 8 h / half-life / Cmax / AUC(0-t): female, po; for half-life: elimination half-life; for AUC(0-t): read-out: AUC0–8h
From the text: Mice with similar average ages (and body weights) were randomly allocated in experimental groups as far as possible. Mice were maintained in a temperature-controlled and specific pathogen-free environment with a 12-h light and 12-h dark cycle and they received a standard diet (Transbreed, SDS Diets, Technilab-BMI, Someren, The Netherlands) and acidified water ad libitum. […] Given the objective main readout (repotrectinib plasma and tissue concentrations as measured by LC-MS/MS), no blinding method was applied.
Repotrectinib was dissolved in dimethyl sulfoxide (DMSO) at a concentration of 50 mg/mL. This stock solution was first diluted 3-fold with ethanol/polysorbate 80 (1/1; v/v), followed by further dilution with a 10 mM hydrochloric acid solution, yielding a dosing solution of 1 mg/mL, freshly prepared on the day of experiment. Final concentrations of the solvents in the administration solution were: 2%, 2%, 2%, and 94% (all v/v) for DMSO, ethanol, polysorbate 80, and 10 mM hydrochloric acid solution, respectively.
To minimize variation in absorption upon oral administration, mice were fasted for 2–3 h before repotrectinib (10 mg/kg body weight) was administered by gavage into the stomach at 10 µL/g body weight, with a blunt-ended needle. Tail vein serial blood samples were collected at 0.125, 0.25, 0.5, 1, 2 and 4 h using heparinized capillary tubes (Sarstedt, Nümbrecht, Germany) for the 8-h experiments. For the 4- and 2-h experiments, blood samplings were performed from the tail vein with the same schedule, but terminated at 2 and 1 h, respectively. Eight, four, or two hours after oral administration, mice were deeply anesthetized with 2–3% isoflurane, followed by cardiac puncture to collect blood in Eppendorf tubes containing heparin as an anticoagulant. Brain, liver, spleen, kidney, lung, small intestine, and testis were rapidly collected after sacrificing the mice by cervical dislocation. The small intestinal contents (SIC) were separated from small intestinal tissue (SI), which was flushed and rinsed with cold saline to remove any residual feces. Brain, liver, spleen, kidney, lung, SI, SIC, and testis were homogenized with 1, 3, 1, 2, 1, 3, 2, and 1 mL of 2% BSA (w/v), respectively. Plasma fraction was isolated from blood by centrifugation at 9000× g for 6 min at 4 °C. All samples were stored at −30 °C until analysis.
A sensitive and specific liquid chromatography-tandem mass spectrometry method using protein precipitation pre-treatment was adopted to quantify the concentration of repotrectinib in DMEM medium, plasma samples and tissue homogenates.
A non-compartmental model using the PKSolver add-in program for Microsoft Excel was adopted to calculate the pharmacokinetic parameters of repotrectinib. Oral availability was assessed by the plasma area under the curve (AUC), calculated using repotrectinib plasma concentration-time curves with the linear trapezoidal rule without extrapolating the infinity. Statistical testing was performed in Graphpad Prism7 (Graphpad Software, La Jolla, CA, USA). All data are presented as geometric means ± SD. Heteroscedastic data were log-transformed before applying statistical analysis. When differences between two groups were compared, the two-sided unpaired Student’s t test was used. One-way analysis of variance (ANOVA) was applied when multiple groups were compared, and the Bonferroni post hoc correction was used to accommodate multiple testing. Differences were considered statistically significant when P < 0.05.

human ABCG2 = test system: T1, human ABCG2; experiment: Transepithelial transport, MDCK-II cells transduced with hABCG2; type: in vitro ADME; details: MDCK-II hABCG2, 5 µM, read-out: efflux transport ratio r
T1 construct: expressed in transfected cells; host or cells: MDCK-II cells stably transduced with hABCG2 cDNA (made in the authors' institute)
From the text: Polarized Madin-Darby Canine Kidney (MDCK-II) cells (ECACC 00062107) stably transduced with either human (h) ABCB1, hABCG2 or mouse (m) Abcg2 cDNA were generated in our institute between 1995–2005. The proper identity and functionality, such as highly characteristic growth and drug transporter properties, including inhibitor sensitivity, were regularly checked in these epithelial cells. Mycoplasma routinely tested negative in these cells. The passage number was 10–15 when used in the transport experiments.
Transepithelial transport experiments were performed as previously described with 12-well plates (Transwell 3414, Corning Inc., Kennebunk, ME, USA) containing microporous polycarbonate membrane filters (3.0 µm pore size, 12 mm diameter). […]
After pre-incubation with 5 µM zosuquidar (ABCB1 inhibitor) and/or 5 µM Ko143 (ABCG2/Abcg2 inhibitor) in both compartments (when appropriate) for 1 h, the transport phase was initiated (t = 0) by replacing the medium in apical and basolateral compartments with fresh DMEM with 10% FBS and the appropriate inhibitor(s), and repotrectinib at 5 µM in the donor compartment. […] The active transport ratio r, calculated by dividing the amount of apically directed drug transport by basolaterally directed drug translocation after 8 h, was used to assess active transport of repotrectinib.

[2] = FVB, mouse, plasma, 10 mg/kg, female Cyp3aXAV mice
[3] = FVB, mouse, plasma, 10 mg/kg, female Cyp3a−/− mice
[4] = FVB, mouse, plasma, 10 mg/kg, female wild-type mice

C[C@H]1CNC(=O)c2cnn3ccc(nc23)N[C@H](C)c2cc(F)ccc2O1 [repotrectinib]
Tmax ([1]; FVB, mouse, plasma, female wild-type mice, read-out: Tmax): 0.5 h
plasma AUC0–8h, fold decrease ([1]; female Cyp3aXAV mice compared to Cyp3a−/− mice): 2.0 fold
SIC (% of dose) ([1]; female Cyp3aXAV mice): 1.68 ± 0.63 % of dose
Fold change AUC0–8h ([1]; female Cyp3aXAV mice): 1.16
Fold change SIC (% of dose) ([1]; female Cyp3aXAV mice): 0.81
Fold increase Cbrain ([1]; female Cyp3aXAV mice): 1.57
Fold increase Cliver ([1]; female Cyp3aXAV mice): 1.13
Fold increase ratio (brain-to-plasma) ([1]; female Cyp3aXAV mice): 1.54
Fold increase ratio (liver-to-plasma) ([1]; female Cyp3aXAV mice): 1.32
SIC (% of dose) ([1]; female Cyp3a−/− mice): 5.11 ± 2.83 % of dose
Fold change SIC (% of dose) ([1]; female Cyp3a−/− mice): 2.46
Fold increase Cbrain ([1]; female Cyp3a−/− mice): 4.16
Fold increase Cliver ([1]; female Cyp3a−/− mice): 4.11
Fold increase ratio (brain-to-plasma) ([1]; female Cyp3a−/− mice): 0.85
Fold increase ratio (liver-to-plasma) ([1]; female Cyp3a−/− mice): 0.90
Fold change AUC0–8h ([1]; female Cyp3a−/− mice, 10 mg/kg): 2.3 and 2.31
SIC (% of dose) ([1]; female wild-type mice): 2.08 ± 1.35 % of dose
Fold change AUC0–8h ([1]; female wild-type mice): 1.00
Fold change SIC (% of dose) ([1]; female wild-type mice): 1.00
Fold increase Cbrain ([1]; female wild-type mice): 1.00
Fold increase Cliver ([1]; female wild-type mice): 1.00
Fold increase ratio (brain-to-plasma) ([1]; female wild-type mice): 1.00
Fold increase ratio (liver-to-plasma) ([1]; female wild-type mice): 1.00
Kp at 8 h ([1]; Cyp3aXAV (>99% FVB background), mouse, brain/plasma, 10 mg/kg, female Cyp3aXAV mice, read-out: Brain-to-plasma ratio): 0.4 ± 0.09
concentration at 8 h ([1]; Cyp3aXAV (>99% FVB background), mouse, liver, 10 mg/kg, female Cyp3aXAV mice, read-out: Cliver): 1380 ± 440 ng/mL
Kp at 8 h ([1]; Cyp3a−/− (>99% FVB background), mouse, brain/plasma, 10 mg/kg, female Cyp3a−/− mice, read-out: Brain-to-plasma ratio): 0.22 ± 0.08
concentration at 8 h ([1]; Cyp3a−/− (>99% FVB background), mouse, liver, 10 mg/kg, female Cyp3a−/− mice, read-out: Cliver): 5020 ± 1920 ng/mL
concentration at 8 h ([1]; FVB, mouse, brain, 10 mg/kg, female Cyp3aXAV mice, read-out: Cbrain): 80.2 ± 35.3 ng/g
concentration at 8 h ([1]; FVB, mouse, brain, 10 mg/kg, female Cyp3a−/− mice, read-out: Cbrain): 213 ± 53.7 ng/g
concentration at 8 h ([1]; FVB, mouse, brain, 10 mg/kg, female wild-type mice, read-out: Cbrain): 51.2 ± 17.8 ng/g
Kp at 8 h ([1]; FVB, mouse, liver, 10 mg/kg, female Cyp3aXAV mice, read-out: Liver-to-plasma ratio): 7.1 ± 2.11
Kp at 8 h ([1]; FVB, mouse, liver, 10 mg/kg, female Cyp3a−/− mice, read-out: Liver-to-plasma ratio): 4.81 ± 0.76
Kp at 8 h ([1]; FVB, mouse, liver, 10 mg/kg, female wild-type mice, read-out: Liver-to-plasma ratio): 5.36 ± 0.54
half-life [1, 2]: 1.6 ± 0.2 h
half-life [1, 3]: 2.5 ± 0.9 h
half-life [1, 4]: 1.6 ± 0.4 h
Cmax [1, 2]: 5560 ± 610 ng/mL
AUC(0-t) [1, 2]: 18900 ± 3650 ng·h/mL
Cmax [1, 3]: 8280 ± 930 ng/mL
AUC(0-t) [1, 3]: 37600 ± 2830 ng·h/mL
Cmax [1, 4]: 4800 ± 1780 ng/mL
AUC(0-t) [1, 4]: 16300 ± 6350 ng·h/mL
Kp at 8 h ([1]; wild-type (>99% FVB background), mouse, brain/plasma, 10 mg/kg, female wild-type mice, read-out: Brain-to-plasma ratio): 0.26 ± 0.12
concentration at 8 h ([1]; wild-type (>99% FVB background), mouse, liver, 10 mg/kg, female wild-type mice, read-out: Cliver): 1220 ± 650 ng/mL
Tmax ([1]; female Cyp3aXAV mice): 0.5 (0.25–0.5) h
Tmax ([1]; female Cyp3a−/− mice): 0.5 (0.125–0.5) h
efflux ratio at 8 h, 5 µM (human ABCG2; pH 7.4, with zosuquidar 5 µM + Ko143 5 µM, + zosuquidar 5 µM + Ko143 5 µM): 0.95
efflux ratio at 8 h, 5 µM (human ABCG2; pH 7.4, with zosuquidar 5 µM, + zosuquidar 5 µM): 5.6
